The text below walks through data of ChEMBL document CHEMBL1201862, “PubChem BioAssay data set” (2004).

The structures appear in SMILES notation.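 Cultured in 96-well plates, cells were exposed to test compound for 48 hours across five concentrations. The concentration for 50% growth inhibition is given as GI50.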 Calls of active or inactive are those of the source. Cut-off read from the data, not from the text of the source: active = GI50 up to about 1.1 µM and inactive = higher. A value given as a limit tells only on which side of the number the result lay.

Some test systems named below: NCI/ADR-RES; OVCAR-5; MOLT-4; COLO 205; CAKI-1; SF-539; 786-0; HCT-116; K562; SK-OV-3; NCI-H23; HCC 2998; Malme-3M; M14; CCRF-CEM; MCF7; NCI-H460; LOX IMVI; SNB-75.
Holding throughout (test): NCI tumour cell line growth inhibition, 48 h

On to `Cn1c(=O)c2c(nc(-n3nc(-c4ccc(Cl)cc4)cc3N)n2C)n(C)c1=O`, for which the GI50 in the assay on NCI/ADR-RES was 39.6 µM (inactive); with OVCAR-5, 79.8 µM (inactive); in the assay with MOLT-4, 11.6 µM (inactive); in the assay with COLO 205, > 100 µM (inactive); in the assay with CAKI-1, > 100 µM (inactive); in the assay on SF-539, 17.3 µM (inactive). Also, the GI50 was 6.9 µM (inactive) in the assay with 786-0; 19.1 µM (inactive) with HCT-116; 67.6 µM (inactive) with K562; 18.1 µM (inactive) with SK-OV-3; > 100 µM (inactive) in the assay on NCI-H23; > 100 µM (inactive) in the assay with HCC 2998. Further, the GI50 was 7.13 µM (inactive) with Malme-3M; > 100 µM (inactive) with M14; > 100 µM (inactive) with CCRF-CEM; 68.4 µM (inactive) in the assay on MCF7; > 100 µM (inactive) with NCI-H460.
Take `CCCCCCCCCCCCCCCCCCNc1ccn(C2OC(COP(=O)(O)O)C(O)C2O)c(=O)n1` (stereo not drawn): the GI50 in the assay on NCI/ADR-RES, in the assay on OVCAR-5, with LOX IMVI, with MOLT-4, in the assay on COLO 205 and in the assay with CAKI-1 was > 100 µM (inactive) throughout. In addition, the GI50 with SF-539, in the assay on 786-0, with HCT-116, with K562, in the assay on SK-OV-3 and with NCI-H23 was > 100 µM (inactive) in each case. Further, the GI50 in the assay with HCC 2998, in the assay on M14, with CCRF-CEM, in the assay with SNB-75 and in the assay with MCF7 was > 100 µM (inactive) each time.
As to `CC(=O)O[C@H]1C(=O)[C@@]2(C)[C@H]([C@H](OC(=O)c3ccccc3)[C@]3(O)C[C@H](OC(=O)[C@H](O)[C@@H](NC(=O)c4ccccc4)C4CCCCC4)C(C)=C1C3(C)C)[C@]1(OC(C)=O)CO[C@@H]1C[C@@H]2O`, the GI50 was 2.96 µM (inactive) with NCI/ADR-RES; < 0.01 µM (active) in the assay on OVCAR-5; < 0.01 µM (active) in the assay on LOX IMVI; < 0.01 µM (active) in the assay with MOLT-4; < 0.01 µM (active) in the assay on COLO 205; 0.409 µM (active) with CAKI-1. Further, the GI50 with SF-539, in the assay on 786-0, with HCT-116, in the assay with K562, with SK-OV-3 and in the assay with NCI-H23 was < 0.01 µM (active) throughout. Moreover, the GI50 in the assay with HCC 2998 was < 0.01 µM (active); in the assay with Malme-3M, 23.6 µM (inactive); in the assay on M14 it was < 0.01 µM (active); in the assay with CCRF-CEM it was < 0.01 µM (active); in the assay on MCF7, < 0.01 µM (active); in the assay with NCI-H460 it was < 0.01 µM (active).
Consider `NC(=O)C(c1ccccc1)N1OC2C(=O)N(Cc3ccccc3)C(=O)C2C1c1cccc(Oc2ccc(Cl)cc2)c1` (stereo not drawn), for which the GI50 with NCI/ADR-RES is 34 µM (inactive); in the assay on OVCAR-5 it was 32.1 µM (inactive); with LOX IMVI, 15.7 µM (inactive); in the assay on MOLT-4, 32.8 µM (inactive); in the assay with COLO 205, 17.5 µM (inactive); with CAKI-1, 14.9 µM (inactive). For the same compound, the GI50 was 18.7 µM (inactive) in the assay on SF-539; 21.3 µM (inactive) in the assay with 786-0; 19.4 µM (inactive) in the assay on HCT-116; 26 µM (inactive) with K562; 60.7 µM (inactive) with SK-OV-3; 36.2 µM (inactive) with NCI-H23. Moreover, the GI50 with Malme-3M is 42.9 µM (inactive); in the assay with M14 it was 23.6 µM (inactive); in the assay on CCRF-CEM, 36.1 µM (inactive); in the assay with SNB-75, 31.7 µM (inactive); in the assay with MCF7, 28 µM (inactive); with NCI-H460, 28.8 µM (inactive).
As to `O=C(O)C1CCCN1Cc1c[nH]c2ccccc12` (stereo not drawn), the GI50 with NCI/ADR-RES, in the assay on OVCAR-5, in the assay with LOX IMVI, in the assay on MOLT-4, in the assay with COLO 205 and in the assay on CAKI-1 was > 100 µM (inactive) throughout. The GI50 in the assay with SF-539, in the assay on 786-0, in the assay with HCT-116, in the assay with K562, with SK-OV-3 and in the assay on NCI-H23 was > 100 µM (inactive) in each case. The GI50 with Malme-3M, in the assay on M14, with CCRF-CEM, in the assay with SNB-75, in the assay with MCF7 and in the assay on NCI-H460 was > 100 µM (inactive) in each case.
For the compound `CCOc1ccc(/C=C2/C(=O)N/C(=N\C(C)=O)N2C)cc1`, the GI50 with NCI/ADR-RES was > 100 µM (inactive); in the assay on OVCAR-5, > 100 µM (inactive); with LOX IMVI it was > 100 µM (inactive); in the assay on MOLT-4, 39.6 µM (inactive); in the assay with COLO 205 it was > 100 µM (inactive); in the assay with CAKI-1, > 100 µM (inactive). Also, the GI50 with SF-539, in the assay on 786-0, with HCT-116, with SK-OV-3, in the assay with NCI-H23 and in the assay with HCC 2998 was > 100 µM (inactive) each time. In addition, the GI50 in the assay on M14 was > 100 µM (inactive); in the assay on SNB-75, > 100 µM (inactive); in the assay on MCF7 it was 62.8 µM (inactive); with NCI-H460 it was 67.5 µM (inactive).
As for `O=C(Cc1ccccc1)NCCCN(CCCCN(CCCNC(=O)Cc1ccccc1)C(=O)OCc1ccccc1)C(=O)OCc1ccccc1`, the GI50 in the assay with NCI/ADR-RES was > 100 µM (inactive); in the assay on OVCAR-5, > 100 µM (inactive); in the assay on LOX IMVI it was > 100 µM (inactive); with MOLT-4, 4.49 µM (inactive); in the assay with COLO 205, 6.07 µM (inactive); in the assay on CAKI-1 it was 4.74 µM (inactive). Moreover, the GI50 with SF-539 was > 100 µM (inactive); with 786-0, > 100 µM (inactive); in the assay on HCT-116, > 100 µM (inactive); in the assay on K562, 7.24 µM (inactive); in the assay with SK-OV-3, > 100 µM (inactive); in the assay with NCI-H23, > 100 µM (inactive). Besides, the GI50 with HCC 2998 was > 38.1 µM (inactive); with M14, > 100 µM (inactive); in the assay with CCRF-CEM, > 20.3 µM (inactive); with MCF7, > 81.1 µM (inactive); in the assay on NCI-H460, > 19.9 µM (inactive).
As for `c1ccc2/c3[nH]/c(c2c1)=N\c1ccc(cc1)-c1nc2cc(ccc2o1)/N=c1/[nH]/c(c2ccccc12)=N/c1ccc2nc(oc2c1)-c1ccc(cc1)\N=3`, the GI50 in the assay with NCI/ADR-RES is 32.1 µM (inactive); in the assay on OVCAR-5, > 100 µM (inactive); in the assay on LOX IMVI it was > 100 µM (inactive); in the assay with MOLT-4 it was > 100 µM (inactive); in the assay with COLO 205 it was > 100 µM (inactive); in the assay on CAKI-1, > 100 µM (inactive). Further, the GI50 in the assay on 786-0 is > 100 µM (inactive); with HCT-116, > 100 µM (inactive); in the assay with K562, > 100 µM (inactive); in the assay on NCI-H23 it was > 100 µM (inactive); with HCC 2998, 6.9 µM (inactive); with M14, > 100 µM (inactive). In addition, the GI50 in the assay on CCRF-CEM was > 100 µM (inactive); in the assay on MCF7, > 100 µM (inactive); with NCI-H460 it was 51.8 µM (inactive).
As for `O=C(Cc1cccs1)N[C@@H]1C(=O)N2C(C(=O)OC(c3ccccc3)c3ccccc3)=C(CO)CS[C@H]12`, the GI50 was 96.6 µM (inactive) with NCI/ADR-RES; > 100 µM (inactive) in the assay with OVCAR-5; > 100 µM (inactive) in the assay on LOX IMVI; > 100 µM (inactive) with MOLT-4; > 100 µM (inactive) with COLO 205; > 100 µM (inactive) with CAKI-1. Moreover, the GI50 in the assay with SF-539 is > 100 µM (inactive); in the assay with 786-0 it was > 100 µM (inactive); in the assay on HCT-116 it was > 100 µM (inactive); in the assay with K562, > 100 µM (inactive); in the assay with SK-OV-3 it was > 100 µM (inactive); in the assay on NCI-H23 it was 46 µM (inactive). The GI50 with HCC 2998 is 52.8 µM (inactive); in the assay on Malme-3M it was 40.7 µM (inactive); with M14, > 100 µM (inactive); in the assay with CCRF-CEM, 20 µM (inactive); in the assay on MCF7, > 100 µM (inactive); with NCI-H460, 75.2 µM (inactive).
With `CC(=O)Oc1ccc2c(c1)O/C(=C\c1ccc(O)cc1)C2=O`, the GI50 with NCI/ADR-RES, in the assay with MOLT-4, in the assay on COLO 205, in the assay on CAKI-1, in the assay on SF-539 and with 786-0 was > 100 µM (inactive) throughout. For the same compound, the GI50 with HCT-116, in the assay on K562, in the assay on SK-OV-3, with NCI-H23, in the assay on HCC 2998 and in the assay on M14 was > 100 µM (inactive) throughout. The GI50 in the assay on CCRF-CEM, in the assay with SNB-75, in the assay with MCF7 and in the assay on NCI-H460 was > 100 µM (inactive) throughout.
Regarding `NS(=O)(=O)c1ccc(/N=N/c2cnc(O)c(O)c2)cc1`, the GI50 with NCI/ADR-RES was 94.2 µM (inactive); in the assay on OVCAR-5 it was > 100 µM (inactive); with LOX IMVI, 91.2 µM (inactive); in the assay with MOLT-4 it was 54 µM (inactive); in the assay on COLO 205, 95.3 µM (inactive); in the assay on CAKI-1, > 100 µM (inactive). Besides, the GI50 was 67.5 µM (inactive) in the assay with SF-539; > 100 µM (inactive) with 786-0; > 100 µM (inactive) in the assay on HCT-116; > 100 µM (inactive) with K562; > 100 µM (inactive) in the assay with SK-OV-3; 64 µM (inactive) in the assay on NCI-H23. Besides, the GI50 in the assay with Malme-3M was 29.8 µM (inactive); with M14, 81.3 µM (inactive); in the assay on CCRF-CEM, 19.6 µM (inactive); in the assay with SNB-75, 47.4 µM (inactive); with MCF7, 44.2 µM (inactive); in the assay with NCI-H460, > 100 µM (inactive).
